This is an account of results in patent US20230295066A1, “Process for the Efficient Preparation of (Bio)-Alkanediols” (Symrise AG, priority 2020, published 2023).

One data set relates to Staphylococcus aureus. The data set can be described thus: Minimum Inhibitory Concentration (MIC) test, synergy with antimicrobials. The class given is cell-based. As to conditions: for MICB: MIC value for Substance B alone; for MICC: MIC value for Substance C alone; for MICA: MIC value for Substance A alone. As for the experimental part:
(§1) The Minimum Inhibitory Concentration (MIC) test is a test on growth inhibition. The estimation of MICs is executed in 96 well plates. Through the comparison of bacterial growth with positive and negative controls via optical density (OD), different concentrations of given test substances are evaluated.
(§2) Bacteria were cultivated under adjusted conditions based on information of the German Collection of Microorganisms and Cell Cultures (DSMZ) and stored in 50% glycerol prior to use. Afterwards, the following method was applied: Growth medium (according to microorganism) was added to each well of the microplate. Then, the test-substances were added in different concentrations, positive controls (water controls only with medium) and negative controls (benchmarks according to organism). Finally, the microorganisms were added in a concentration of 10^6 CFU/ml (CFU=colony forming units). The incubation of the microplates was carried out at appropriate conditions.
(§3) According to the resulting growth, substance concentrations are labelled either as inhibiting or not and MIC is defined as the lowest concentration where a complete growth inhibition is visible. Experiments at concentration limits (highest concentration labelled as growth and lowest concentration labelled as inhibiting) are performed at least twice.
(§4) Minimum Inhibitory Concentration (MIC) are given in ppm.
The synergistic activity of different combinations of 1,2-nonanediol (C9 nonanediol) and 1,2-heptanediol (C7 heptanediol) as components A and C in combination with different antimicrobial compounds (component B) was determined by measuring the corresponding Minimum Inhibitory Concentrations (MIC).
To verify that the tested combinations act synergistically against microorganisms of the natural microbiota of mammalian skin, a corresponding experiment was conducted with Staphylococcus aureus, a well-known pathogen on the skin. The synergistic activities of 1,2-nonanediol (1,2-C9), 1,2-heptanediol (1,2-C7), 2,3-nonanediol (2,3-C9), 2,3-heptanediol (2,3-C7) and different antimicrobial compounds were determined by measuring the MIC of the mixture as indicated above.
In order to calculate the synergy index with MIC values, the Kull equation (equation 6) was used as follows:
SI=(MICmix×PA)/MICA+(MICmix×PB)/MICB+(MICmix×PC)/MICC Equation (6): Minimum Inhibitory Concentration
wherein • SI is the Synergy Index according to Kull • MICA is the MIC value for Substance A in ppm • MICB is the MIC value for Substance B in ppm • MICC is the MIC value for Substance C in ppm • MICmix is the MIC value for the mixture of substances A and B and C in ppm • PA is the proportion of the substance A in the mixture • PB is the proportion of the substance B in the mixture • PC is the proportion of the substance C in the mixture

Data set [1] can be described thus: Solubility in sunflower oil. The class given is physicochemical. As to conditions: result in words.
The test system of the next data set is Aspergillus brasiliensis. The data set can be described thus: Minimum Inhibitory Concentration (MIC) test, alkanediol mixtures. The class given is cell-based. As to conditions: for MICB: Comp. B alone; for MICA: Comp. A alone. Here is the method:
as §1, §2, §3, §4
To verify that the tested combinations act synergistically against microorganisms of the natural microbiota of mammalian skin, a corresponding experiment was conducted with Aspergillus brasiliensis, a well-known pathogen on the skin. The synergistic activities of different alkanediol mixtures including a 1,2-alkanediol (substance A) and a 2,3-alkanediol (substance B) in ratios as specified in the following Table 5 were determined by measuring the MIC of the mixture as indicated in methods section.
In order to calculate the synergy index with MIC values, the Kull equation (I) was used as follows:
SI=(MICmix×PA)/MICA+(MICmix×PB)/MICB
wherein • SI is the Synergy Index according to Kull • MICA is the MIC value for Substance A in ppm • MICB is the MIC value for Substance B in ppm • MICmix is the MIC value for the mixture of substances A and B and C in ppm • PA is the proportion of the substance A in the mixture • PB is the proportion of the substance B in the mixture

Data set [2] deals with reactive oxygen species (ROS) on ex vivo skin. As to the kind of experiment: DCF assay, ROS score on ex vivo skin biopsies. Conditions: Cumene hydroperoxide 0.5M. The class given is cell-based. Here is the method: A dichlorofluorescein test (DCF) assay was performed in order to determine the amount of reactive oxygen species (ROS) on ex vivo skin treated with different test samples in a lipophilic or an aqueous/alcoholic system as described below.
DCF assay—assay principle: Ex vivo skin was incubated with 2′,7′-dichlorodihydrofluorescein diacetate at 37° C., 5% CO2. After PBS washing, the samples were exposed or not to cumene hydroperoxide. Immediately after exposure, ex vivo skin samples were frozen in liquid nitrogen and 5 μm cryostat sections were made and fixed with acetone to allow the visualization of fluorescence generated by ROS in cells of the reconstructed skins. The resulting fluorescence was measured at EX/EM 504/524 nm. Green fluorescence was quantified in ex vivo skin using ImageJ software. The depth of immunostaining was measured as follows: green DCFH-DE positive cells were automatically detected using Histolab software and the distance between dermal epidermal junction and the deepest positive cells were measured in each condition. Means were compared using a student's test. Two means were considered statistically different when p<0.005.
The image acquisition was performed by using Olympus BX51 microscope and Olympus DP70 camera. For each skin sample two skin sections have been taken and the related fluorescent images acquired and analysed. Thus, for each test condition, 12 images have been acquired and analysed (i.e. 12 data). The analysis of fluorescence has been performed within the dermis area. For each image the upper dermis has been analysed by evaluating the fluorescence through modified Image-J application (NIH, USA). The analysed area is selected from the upper part by following the perimeter of the basal lamina, to the deep dermis, by carefully avoiding the risk of including irregularities and agglomerates, such as blood vessels, sebaceous glands, hair follicles. The obtained value has been normalized upon the dimension of the selected area.
In addition, as positive control an AOX mix is always co-tested, i.e., as benchmark for the ROS analysis. The AOX mix is a mixture of the following antioxidants: 15% vitamin C, 1% vitamin E, 0.5% ferulic acid in a EtOH/H2O (50:50) mixture.
ROS score method description: The pigmentation score is based on the following process steps: • (1) Analysis of the image based on pixel grey intensities; • (2) Selection of an informative area excluding the pixel area not covered from tissue; • (3) Transformation of pixel grey intensities in degrees of L*; • (4) Normalization of the obtained values on the ratio between the selected area and the area of the slide.
An increased level of ROS (reactive oxygen species) led to an increased amount of fluorescence. […]

Regarding `CCCCCCCC(=O)NO` [Capryl hydroxamic acid, reference compound], the MICB in the data set on Staphylococcus aureus was 1000 ppm. On the same count and under the same terms, under `OCc1ccccc1` [Benzyl alcohol, reference compound] stands 5000 ppm. `CCCCCC(O)C(C)O` (stereo not drawn) [2,3-C8, 2,3-octanediol]: the “Solubility in sunflower oil / oil phase” value in data set [1] is reported as “good solubility”. The MICB in the data set on Aspergillus brasiliensis is given as 2500 ppm. Turning to `CCCCC(O)C(C)O` (stereo not drawn) [2,3-C7, 2,3-heptanediol], the MICC in the data set with Staphylococcus aureus came to 20000 ppm. Also, the MICB in the data set with Aspergillus brasiliensis amounted to 7500 ppm. On to `CCCCCCC(O)CO` (stereo not drawn) [1,2-C8, 1,2-octanediol], for which, in data set [1], the “Solubility in sunflower oil / oil phase” value is “tends to precipitate or recrystallize”. The MICA in the data set with Aspergillus brasiliensis stood at 2500 ppm. With o-Cymen-5-ol [reference compound], in the data set on Staphylococcus aureus, the MICB worked out at 250 ppm. As to `CCCC(O)C(C)O` (stereo not drawn) [2,3-C6, 2,3-hexanediol], the MICB in the data set with Aspergillus brasiliensis worked out at 20000 ppm. `O=C(CCc1ccc(O)cc1)Nc1ccccc1C(=O)O` [50 ppm DHAvD, Dihydroavenanthramide D]: the “ROS score, Mean Score” value in data set [2] (ex vivo skin, mean of 12 tests) was 1.72. In addition, in data set [2] (ROS score), the “D percent vs. - A cumene” value was −14%, the “D percent vs. untreated cumene” value was −21% and the “D percent vs. untreated/No cumene” value came out at 1645%. In the case of `CCCCCCCC(O)CO` (stereo not drawn) [1,2-C9, 1,2-nonanediol], the MICA was 1000 ppm in the data set on Staphylococcus aureus and 500 ppm with Aspergillus brasiliensis. With `CCCCCCC(O)C(C)O` (stereo not drawn) [2,3-C9, 2,3-nonanediol], in the data set with Staphylococcus aureus, the MICC was determined as 2500 ppm. Moreover, the MICB in the data set on Aspergillus brasiliensis is recorded as 1000 ppm. Consider `CCCCC(O)CO` (stereo not drawn) [1,2-C6, 1,2-hexanediol], for which the MICA with Aspergillus brasiliensis was 7500 ppm. As to `CCCCCC(O)CO` (stereo not drawn) [1,2-C7, 1,2-heptanediol], the MICA with Staphylococcus aureus turned out to be 7500 ppm; in the data set on Aspergillus brasiliensis, 5000 ppm.
